Values of other authors as cited in US20020115211A1, “A METHOD FOR IN VITRO MATURATION OF HUMAN GAMETES” (MEDI-CULT A/S, priority 1998, published 2002).

Tested on: immature human gametes
Settings: presence in the culture medium; recent research

Which “effect on the chance for successful pregnancy” value does the source give for “insulin: Component of the SSR media additives” here?
The value was “negative effect”.
